Reference: publication PMC8456368 (Bioorganic & medicinal chemistry, 2021)

Assays:
[1] = molecular target: T1, GST-MKK3 and full-length VF-MYC interaction (Homo sapiens, UniProt P46734); assay: dose-response cell lysate-based TR-FRET assay; format: binding; conditions: for inhibition of MKK3-MYC PPI in dose-response TR-FRET: up to 100 µM compound
T1 sequence (P46734 1-347): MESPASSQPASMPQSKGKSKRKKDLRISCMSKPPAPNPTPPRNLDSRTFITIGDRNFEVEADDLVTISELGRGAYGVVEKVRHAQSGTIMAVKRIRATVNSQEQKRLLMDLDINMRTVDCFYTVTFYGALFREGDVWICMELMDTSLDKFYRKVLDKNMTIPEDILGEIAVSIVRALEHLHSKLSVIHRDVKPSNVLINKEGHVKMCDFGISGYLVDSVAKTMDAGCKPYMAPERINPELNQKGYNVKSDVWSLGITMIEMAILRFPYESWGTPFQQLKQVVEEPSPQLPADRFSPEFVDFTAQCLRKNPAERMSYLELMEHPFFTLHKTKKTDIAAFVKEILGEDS

[2] = test system: MYC transcriptional activity in HCT116 cells; assay: luciferase-based MYC reporter assay; format: cell-based; conditions: HCT116 cells expressing VF-MKK3; 0.5 to 5 µM, 12 hours
[3] = test system: MYC, CDK4 and PD-L1 level in HCT116 cells; assay: Western blot of MYC and MYC-target genes; format: cell-based; conditions: RG108 up to 10 µM
MKK3-p38 PPI = molecular target: T2, MKK3-p38 PPI (Homo sapiens, UniProt P46734); assay: GST pull-down PPI inhibition assay, compound-treated HEK293T lysates; format: binding; conditions: up to 50 µM
T2 sequence (P46734 1-347): T1 sequence (P46734 1-347)

[4] = test system: phosphorylation of MKK3 substrate p38 in HEK293T cells; assay: p38 phosphorylation in compound-treated cells; format: cell-based; conditions: HEK293T cells incubated with compound
MYC-MAX PPI = MYC-MAX PPI (Homo sapiens, UniProt P01106); assay: GST pull-down PPI inhibition assay, compound-treated HEK293T lysates; format: binding; conditions: up to 50 µM
Chain of MYC-MAX PPI (P01106 16-454): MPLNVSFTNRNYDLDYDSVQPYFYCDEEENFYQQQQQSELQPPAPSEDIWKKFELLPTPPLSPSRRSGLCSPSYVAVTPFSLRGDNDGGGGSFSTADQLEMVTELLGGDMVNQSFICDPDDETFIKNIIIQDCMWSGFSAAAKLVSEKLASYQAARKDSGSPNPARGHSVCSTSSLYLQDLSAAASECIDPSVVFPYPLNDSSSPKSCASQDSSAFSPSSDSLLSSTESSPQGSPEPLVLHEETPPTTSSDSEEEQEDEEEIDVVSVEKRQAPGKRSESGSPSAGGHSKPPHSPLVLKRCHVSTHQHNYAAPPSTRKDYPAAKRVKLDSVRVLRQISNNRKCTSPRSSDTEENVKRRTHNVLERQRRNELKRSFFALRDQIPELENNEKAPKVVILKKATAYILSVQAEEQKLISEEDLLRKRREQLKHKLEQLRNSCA

[5] = test system: MYC level in MDA-MB-468 cells; assay: Western blot of MYC level; format: cell-based; conditions: increasing concentration
[6] = molecular target: T3, GST-MKK3 association with endogenous MYC in HCT116 cells (Homo sapiens, UniProt P46734); assay: GST pull-down from compound-treated cells; format: cell-based; conditions: HCT116 cells treated with increased concentration
T3 sequence (P46734 1-347): T1 sequence (P46734 1-347)

MKK3-MYC PPI = molecular target: T4, MKK3-MYC PPI (Homo sapiens, UniProt P46734); assay: GST pull-down PPI inhibition assay, compound-treated HEK293T lysates; format: binding; conditions: lysates treated with 50 µM
T4 sequence (P46734 1-347): T1 sequence (P46734 1-347)

[7] = test system: MYC transcriptional activity in MDA-MB-468 cells; assay: luciferase-based MYC reporter assay; format: cell-based; conditions: MDA-MB-468 cells expressing VF-MKK3; 0.5 to 5 µM, 12 hours
Renilla luciferase = assay: luciferase interference control; format: cell-based; conditions: cells treated with 10 µM, vs DMSO control

| SMILES | inhibition of MKK3-MYC PPI in dose-response TR-FRET [1] | MKK3-induced MYC transcriptional activity, reporter assay [2] | level of MYC and MYC-target genes (CDK4, PD-L1) [3] | suppression of MKK3-p38 PPI in GST pull-down (MKK3-p38 PPI) | phosphorylation of MKK3 substrate p38 [4] | suppression of MYC-MAX PPI in GST pull-down (MYC-MAX PPI) | MYC level [5] | association of GST-MKK3 with endogenous MYC [6] | inhibition of MKK3-MYC PPI in GST pull-down (MKK3-MYC PPI) | MKK3-induced MYC transcriptional activity, reporter assay [7] | Renilla luciferase activity (Renilla luciferase) | IC50 [1] |
| --- | --- | --- | --- | --- | --- | --- | --- | --- | --- | --- | --- | --- |
| Cc1cc2c(C(C)C)c(O)c(O)c(C=O)c2c(O)c1-c1c(C)cc2c(C(C)C)c(O)c(O)c(C=O)c2c1O [AT101, (−)-1,1’,6,6’,7,7’-Hexahydroxy-3,3’-dimethyl-5,5’-bis(1-methylethyl)-[2,2’-binaphthalene]-8,8’dicarboxaldehyde] | did not demonstrate detectable inhibition |  |  |  |  |  |  |  |  |  |  |  |
| O=C(O)[C@H](Cc1c[nH]c2ccccc12)N1C(=O)c2ccccc2C1=O [RG108] | does not interfere | not suppressed | did not suppress |  |  |  |  |  |  |  |  |  |
| Cc1cc(Nc2ccc(NC(=O)c3ccc(Nc4ccnc5ccccc45)cc3)cc2)nc(N)n1 [SGI-1027, N-[4-[(2-Amino-6-methylpyrimidin-4-yl)amino]phenyl]-4-(quinolin-4-ylamino)benzamide] |  | diminished | substantial decrease | did not observe a significant suppression | did not decrease | did not observe a significant suppression | decreased proportionally | decreased association | confirmed the inhibition | diminished | did not observe a decrease | 8 µM |
